From article PMC7407242, “Deamidated Human Triosephosphate Isomerase is a Promising Druggable Target” (Biomolecules, 2020)

Columns and labels:
[1] = biological target: T1, HsTIM (human triosephosphate isomerase) (Homo sapiens, UniProt P60174, N16D); test: residual activity after preincubation, coupled alpha-GPDH / NADH assay at […] nm; type: biochemical; conditions: read-out: activity dropped to 50%
T1 construct: gene TPI1; full-length; recombinant E. coli BL21-CodonPlus(DE3)-RIL, vector pET3a-HisTEV, N-terminal His6-TEV tag cut by TEVp for purified assays; tagged plasmid in E. coli tim-deletion BL21-Gold(DE3) cells for omeprazole; homodimer, 5 Cys per subunit

[2] = biological target: T2, HsTIM (human triosephosphate isomerase) (Homo sapiens, UniProt P60174); test: Ellman free thiol count after derivatization; type: binding; design: gene TPI1; full-length; recombinant E. coli BL21-CodonPlus(DE3)-RIL, vector pET3a-HisTEV, N-terminal His6-TEV tag cut by TEVp for purified assays; tagged plasmid in E. coli tim-deletion BL21-Gold(DE3) cells for omeprazole; homodimer, 5 Cys per subunit; conditions: covalent; 250 µM compound, 2 h at 37 °C, enzyme 0.5 mg/mL, TE buffer pH 7.4
Description: Ellman free thiol count after derivatization on HsTIM (human triosephosphate isomerase)

[3] = biological target: T2, HsTIM (human triosephosphate isomerase); test: TIM activity in lysate of treated E. coli tim-deletion cells; type: cell-based; design: gene TPI1; full-length; tagged plasmid in E. coli tim-deletion BL21-Gold(DE3) cells for omeprazole; homodimer, 5 Cys per subunit; conditions: residual activity; 0.75 mM omeprazole, 22 h at 37 °C, M9 medium; covalent
Description: TIM activity in lysate of treated E. coli tim-deletion cells on HsTIM (human triosephosphate isomerase)

T1 sequence (P60174 2-249 N16D): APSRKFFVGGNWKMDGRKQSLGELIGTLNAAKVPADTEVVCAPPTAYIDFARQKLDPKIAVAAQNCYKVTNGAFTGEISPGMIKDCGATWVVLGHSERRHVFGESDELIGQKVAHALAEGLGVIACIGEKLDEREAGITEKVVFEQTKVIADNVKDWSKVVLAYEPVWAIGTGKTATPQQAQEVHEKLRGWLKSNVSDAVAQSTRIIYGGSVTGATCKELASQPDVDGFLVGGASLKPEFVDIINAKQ
T2 sequence (P60174 2-249): as the sequence (P60174 2-249 N16D) above, with D15N counted along it

| Compound | IC50 [1] [µM] | Derivatized Cys/Subunit [2] [Cys/subunit] | Enzyme Activity (%) [3] [%] |
| --- | --- | --- | --- |
| O=C(O)c1cc(SSc2ccc([N+](=O)[O-])c(C(=O)O)c2)ccc1[N+](=O)[O-] [DTNB, 5,5′-dithiobis-(2-nitrobenzoic acid)] | 3 |  |  |
| CSS(C)(=O)=O [MMTS] | 7.5 | 1 |  |
| CS(=O)(=O)SCCS(=O)(=O)O [MTSES, sodium 2-[(methylsulfonyl)sulfanyl] ethanesulfonate] | 6 | 1 |  |
| COc1ccc2[nH]c([S+]([O-])Cc3ncc(C)c(OC)c3C)nc2c1 (stereo not drawn) [omeprazole] |  |  | 96 ± 4 |
